From PubChem BioAssay (NCI)
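The concentration for 50% growth inhibition is given as GI50. Definition used: TGI = concentration required for complete inhibition of growth.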

Columns and labels:
Test in all cases: inhibition of tumour cell growth, NCI panel, 384-well format
MDA-MB-435 melanoma = test system: MDA-MB-435 melanoma
SNB-75 CNS = test system: SNB-75 CNS
UACC-257 melanoma = test system: UACC-257 melanoma
BT-549 breast = test system: BT-549 breast
COLO 205 colon = test system: COLO 205 colon
SF-539 CNS = test system: SF-539 CNS
SR leukemia = test system: SR leukemia
SK-OV-3 ovarian = test system: SK-OV-3 ovarian
A498 renal = test system: A498 renal
RPMI-8226 leukemia = test system: RPMI-8226 leukemia
MDA-MB-468 breast = test system: MDA-MB-468 breast
HT29 colon = test system: HT29 colon
NCI-H322M lung = test system: NCI-H322M lung
MALME-3M melanoma = test system: MALME-3M melanoma
NCI/ADR-RES ovarian = test system: NCI/ADR-RES ovarian
MCF7 breast = test system: MCF7 breast
HOP-62 NSCLC = test system: HOP-62 NSCLC
SNB-19 CNS = test system: SNB-19 CNS
SW-620 colon = test system: SW-620 colon
MOLT-4 leukemia = test system: MOLT-4 leukemia
NCI-H460 NSCLC = test system: NCI-H460 NSCLC
U251 glioblastoma = test system: U251 glioblastoma
SF-295 CNS = test system: SF-295 CNS
TK-10 renal = test system: TK-10 renal
NCI-H23 lung = test system: NCI-H23 lung
SK-MEL-2 melanoma = test system: SK-MEL-2 melanoma
CAKI-1 renal = test system: CAKI-1 renal
HCC-2998 colon = test system: HCC-2998 colon
HL-60(TB) leukemia = test system: HL-60(TB) leukemia
SK-MEL-5 melanoma = test system: SK-MEL-5 melanoma
DU-145 prostate = test system: DU-145 prostate
NCI-H522 lung = test system: NCI-H522 lung
OVCAR-5 ovarian = test system: OVCAR-5 ovarian
UACC-62 melanoma = test system: UACC-62 melanoma
MDA-MB-231 breast = test system: MDA-MB-231 breast
786-0 renal = test system: 786-0 renal
K-562 leukemia = test system: K-562 leukemia
HCT-116 colon = test system: HCT-116 colon
KM12 colon = test system: KM12 colon
OVCAR-3 ovarian = test system: OVCAR-3 ovarian
UO-31 renal = test system: UO-31 renal
HOP-92 NSCLC = test system: HOP-92 NSCLC
CCRF-CEM leukemia = test system: CCRF-CEM leukemia
OVCAR-8 ovarian = test system: OVCAR-8 ovarian
M14 melanoma = test system: M14 melanoma
SN12C renal = test system: SN12C renal
HCT-15 colon = test system: HCT-15 colon
A549 NSCLC = test system: A549 NSCLC
SK-MEL-28 melanoma = test system: SK-MEL-28 melanoma
ACHN renal = test system: ACHN renal
RXF 393 renal = test system: RXF 393 renal
NCI-H226 lung = test system: NCI-H226 lung
PC-3 prostate = test system: PC-3 prostate
T-47D breast = test system: T-47D breast
SF-268 CNS = test system: SF-268 CNS
EKVX NSCLC = test system: EKVX NSCLC
LOX IMVI melanoma = test system: LOX IMVI melanoma
IGROV1 ovarian = test system: IGROV1 ovarian
OVCAR-4 ovarian = test system: OVCAR-4 ovarian

For `C[C@H]1CN(C2COC2)CCN1c1ccc(Nc2cc(-c3ccnc(N4CCn5c(cc6c5CC(C)(C)C6)C4=O)c3CO)cn(C)c2=O)nc1`, the GI50 (MDA-MB-435 melanoma) was 26.2 µM, the TGI (MDA-MB-435 melanoma) was > 55.9 µM and the GI50 (SNB-75 CNS) was 30.5 µM. It also gave a TGI (SNB-75 CNS) of 81.6 µM, a GI50 (UACC-257 melanoma) of 16.4 µM and a TGI (UACC-257 melanoma) of 34.5 µM. The GI50 (BT-549 breast) was 18.9 µM, the TGI (BT-549 breast) was 40.9 µM and the GI50 (COLO 205 colon) was 19.8 µM. For the same compound, the TGI (COLO 205 colon) was 39.8 µM, the GI50 (SF-539 CNS) was 25.5 µM and the TGI (SF-539 CNS) was > 53.4 µM. It also gave a GI50 (SR leukemia) of 5.31 µM, a TGI (SR leukemia) of 18.4 µM and a GI50 (SK-OV-3 ovarian) of 16.3 µM. It also gave a TGI (SK-OV-3 ovarian) of 35.7 µM, a GI50 (A498 renal) of 14.3 µM and a TGI (A498 renal) of 28.2 µM. The GI50 (RPMI-8226 leukemia) was 0.86 µM, the TGI (RPMI-8226 leukemia) was 2.55 µM and the GI50 (MDA-MB-468 breast) was 14.5 µM. The TGI (MDA-MB-468 breast) was 32.8 µM, the GI50 (HT29 colon) was 20.5 µM and the TGI (HT29 colon) was > 50.1 µM. The GI50 (NCI-H322M lung) was 28.6 µM, the TGI (NCI-H322M lung) was > 72.8 µM and the GI50 (MALME-3M melanoma) was 34.8 µM. For the same compound, the TGI (MALME-3M melanoma) was > 54 µM, the GI50 (NCI/ADR-RES ovarian) was 20.8 µM and the TGI (NCI/ADR-RES ovarian) was 55.9 µM. For the same compound, the GI50 (MCF7 breast) was 14.1 µM, the TGI (MCF7 breast) was > 44 µM and the GI50 (HOP-62 NSCLC) was 17.8 µM. For the same compound, the TGI (HOP-62 NSCLC) was > 48.1 µM, the GI50 (SNB-19 CNS) was 29.8 µM and the TGI (SNB-19 CNS) was > 85.4 µM. It also gave a GI50 (SW-620 colon) of 17.5 µM, a TGI (SW-620 colon) of 38.1 µM and a GI50 (MOLT-4 leukemia) of 0.731 µM. For the same compound, the TGI (MOLT-4 leukemia) was 1.93 µM, the GI50 (NCI-H460 NSCLC) was 37.7 µM and the TGI (NCI-H460 NSCLC) was > 100 µM. For the same compound, the GI50 (U251 glioblastoma) was 41.4 µM, the TGI (U251 glioblastoma) was > 100 µM and the GI50 (SF-295 CNS) was 35 µM. The TGI (SF-295 CNS) was > 60.1 µM, the GI50 (TK-10 renal) was 17 µM and the TGI (TK-10 renal) was 32.8 µM. For the same compound, the GI50 (NCI-H23 lung) was 33.5 µM, the TGI (NCI-H23 lung) was > 78.7 µM and the GI50 (SK-MEL-2 melanoma) was 4.87 µM. For the same compound, the TGI (SK-MEL-2 melanoma) was 24.5 µM, the GI50 (CAKI-1 renal) was 17.8 µM and the TGI (CAKI-1 renal) was > 48.1 µM. It also gave a GI50 (HCC-2998 colon) of 3.62 µM, a TGI (HCC-2998 colon) of 14.5 µM and a GI50 (HL-60(TB) leukemia) of 12.9 µM. The TGI (HL-60(TB) leukemia) was 25.9 µM, the GI50 (SK-MEL-5 melanoma) was 27.8 µM and the TGI (SK-MEL-5 melanoma) was > 48.2 µM. It also gave a GI50 (DU-145 prostate) of 30.8 µM, a TGI (DU-145 prostate) of 97.1 µM and a GI50 (NCI-H522 lung) of 12.7 µM. The TGI (NCI-H522 lung) was 37.2 µM, the GI50 (OVCAR-5 ovarian) was 24.1 µM and the TGI (OVCAR-5 ovarian) was > 67.1 µM. For the same compound, the GI50 (UACC-62 melanoma) was 14.6 µM, the TGI (UACC-62 melanoma) was > 54.6 µM and the GI50 (MDA-MB-231 breast) was 6.46 µM. The TGI (MDA-MB-231 breast) was 20.4 µM, the GI50 ([…]-0 renal) was 21.8 µM and the TGI (786-0 renal) was > 52.2 µM. The GI50 (K-562 leukemia) was 20.6 µM, the TGI (K-562 leukemia) was > 53.8 µM and the GI50 (HCT-116 colon) was 20.6 µM. For the same compound, the TGI (HCT-116 colon) was > 52.4 µM, the GI50 (KM12 colon) was 26.2 µM and the TGI (KM12 colon) was > 58.9 µM. It also gave a GI50 (OVCAR-3 ovarian) of 10.7 µM, a TGI (OVCAR-3 ovarian) of 24.7 µM and a GI50 (UO-31 renal) of 16.2 µM. It also gave a TGI (UO-31 renal) of 29.8 µM, a GI50 (HOP-92 NSCLC) of 1.15 µM and a TGI (HOP-92 NSCLC) of 6.86 µM. It also gave a GI50 (CCRF-CEM leukemia) of 3.36 µM, a TGI (CCRF-CEM leukemia) of 13.4 µM and a GI50 (OVCAR-8 ovarian) of 20.9 µM. The TGI (OVCAR-8 ovarian) was > 60.7 µM, the GI50 (M14 melanoma) was 35 µM and the TGI (M14 melanoma) was > 54.7 µM. The GI50 (SN12C renal) was 20.2 µM, the TGI (SN12C renal) was 44.5 µM and the GI50 (HCT-15 colon) was 28.3 µM. For the same compound, the TGI (HCT-15 colon) was > 55.3 µM, the GI50 (A549 NSCLC) was 18.5 µM and the TGI (A549 NSCLC) was > 54.3 µM. For the same compound, the GI50 (SK-MEL-28 melanoma) was > 36.9 µM, the TGI (SK-MEL-28 melanoma) was > 53 µM and the GI50 (ACHN renal) was 19.9 µM. For the same compound, the TGI (ACHN renal) was > 54.2 µM, the GI50 (RXF 393 renal) was 3.89 µM and the TGI (RXF 393 renal) was 26.8 µM. The GI50 (NCI-H226 lung) was 11.8 µM, the TGI (NCI-H226 lung) was 28.4 µM and the GI50 (PC-3 prostate) was 28.1 µM. For the same compound, the TGI (PC-3 prostate) was 90.1 µM, the GI50 (T-47D breast) was 20.3 µM and the TGI (T-47D breast) was > 59.5 µM. The GI50 (SF-268 CNS) was 16.8 µM, the TGI (SF-268 CNS) was 35.4 µM and the GI50 (EKVX NSCLC) was 76.9 µM. The TGI (EKVX NSCLC) was > 100 µM, the GI50 (LOX IMVI melanoma) was 17.7 µM and the TGI (LOX IMVI melanoma) was 31.7 µM. It also gave a GI50 (IGROV1 ovarian) of 15.5 µM, a TGI (IGROV1 ovarian) of 33.9 µM and a GI50 (OVCAR-4 ovarian) of 13.3 µM. For the same compound, the TGI (OVCAR-4 ovarian) was > 51.6 µM.
